According to patent US20240174684A1, “INHIBITORS OF cGAS ACTIVITY AS THERAPEUTIC AGENTS” (BELLBROOK LABS, LLC, priority 2021, published 2024):
Where two headings read alike, the source gives them in different places.

Legend:
[1] = tested on: MDCK cells expressing human MDR1 (P-glycoprotein); test: MDCK-MDR1 permeability A→B; format: in vitro ADME, Canine
Procedure: ADME studies: Compound A and the compounds of the disclosure were tested for aqueous solubility (KSOL), metabolic stability (human and mouse […]) and permeability (Caco-2 and/or MDR1-MDCK cells) to provide an initial indication of oral bioavailability.
The favorable physicochemical properties are reflected in promising results in in vitro ADME tests. […] Metabolic stability, which was routinely measured with mouse and human hepatocytes, is outstanding, with t, greater than 2 hours for all of the compounds of the disclosure in which it has been measured. Cell permeability was measured using MDCK cells expressing human MDR1 (P-glycoprotein) to assess passive permeability as well as active transport out of the cell. […] Numerous compounds in Table 1 meet these permeability criteria, which is consistent with their design for TPSA <140 Å^2 and increased lipophilicity.
The MDCK-MDR1 permeability A ->B is shown in Table 2 below, where A represents 5-10 cm/s×10^−6; B represents 1-5 cm/s×10^−6; and C represents <1 cm/ss×10^−6. The metabolic stability half time, in both mouse and human hepatocytes, is also shown in Table 2 below, where A′ represents 100-200 minutes; B′ represents 200-300 minutes; and C′ represents >300 minutes.

cGAS = cGAS (Homo sapiens, UniProt Q8N884); test: Transcreener cGAS enzymatic assay (FP); format: biochemical
Sequence of cGAS (Q8N884 whole entry): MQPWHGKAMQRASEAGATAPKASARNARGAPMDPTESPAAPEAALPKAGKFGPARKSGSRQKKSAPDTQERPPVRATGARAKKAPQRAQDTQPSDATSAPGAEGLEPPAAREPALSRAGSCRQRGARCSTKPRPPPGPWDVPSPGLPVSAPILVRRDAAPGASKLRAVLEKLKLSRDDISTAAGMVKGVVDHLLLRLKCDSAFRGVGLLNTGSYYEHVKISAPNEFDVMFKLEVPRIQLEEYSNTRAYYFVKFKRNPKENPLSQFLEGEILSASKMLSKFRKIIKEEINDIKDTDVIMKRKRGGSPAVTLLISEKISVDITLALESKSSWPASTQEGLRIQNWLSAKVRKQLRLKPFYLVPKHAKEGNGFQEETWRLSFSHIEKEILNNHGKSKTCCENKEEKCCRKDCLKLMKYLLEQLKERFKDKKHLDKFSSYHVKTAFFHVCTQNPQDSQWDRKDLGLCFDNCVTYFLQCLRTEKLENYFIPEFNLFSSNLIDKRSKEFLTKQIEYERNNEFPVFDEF
Procedure: Structural, biochemical and biophysical analysis and selectivity profiling: Potency and MOA studies, including Mn^2+ sensitivity, were performed using the Transcreener cGAS enzymatic assay, which is manufactured at BellBrook Labs (Fitchburg, Wisconsin, USA). This homogenous cGAS enzymatic assay was developed with fluorescence polarization (FP) and time-resolved Forster resonance energy transfer (TR-FRET) readouts, as described in International Patent Publication WO 2020/142729, incorporated by reference herein in its entirety. Plates are read on a PHERAstar FSX multimode reader (BMG). The compounds of the disclosure were tested for inhibition of cGAS ([…]) using this cGAS enzymatic assay under standard conditions (100 μM ATP and GTP, 62.5 nM bp ISD, 60 minute reactions), high ATP and GTP (1 mM) to mimic physiological conditions, in the presence of 200 μM MnCl2, and with mouse cGAS under standard conditions.
The IC50 values for FP under standard and under physiological conditions were determined for several exemplary compounds of the invention. The relative activities for FP Standard IC50 are shown in Table 2 below, where A represents <50 nM; B represents 50-100 nM; C represents 100-200 nM; D represents 200 nM-1μM; and E represents 1-10 μM. For the relative activities for FP Physiological IC50, A′ represents <200 nM; B′ represents 200-500 nM; C′ represents 500 nM-1μM; D′ represents 1-5 μM; and E′ represents >5 μM.

[2] = tested on: IFNβ production in THP-1 cells; test: IFNβ ELISA in THP-1 cells; format: cell-based, human; conditions: Homo sapiens; THP-1 cells
Description: Cellular assays: The human monocyte cell line THP-1 and human primary PBMCs were used to evaluate the cellular activity of compounds with good biochemical potency. These cells produce a robust cGAS/STING-dependent type I IFN response when stimulated with dsDNA and other pathogen-associated molecular patterns, which was detected using a standard ELISA for IFNβ (R&D Systems). The TBK1 inhibitor, BX-795, which acts downstream of cGAS/STING, was used as a probe.
CETSA was also used to confirm that the compounds are binding to cGAS in cells; THP-1 cells are used for this analysis. Compounds were tested in dose response mode by incubating with cells for 1.5 hours at 37° C., followed by pelleting and re-suspending in PBS, heating to 51.5° C. for 3 min and cooling to room temp. Cells were then lysed, debris, including denatured cGAS, was pelleted and the supernatant was analyzed for soluble cGAS by Western Blot using anti-cGAS primary Ab (Cell Signaling). Band intensity was analyzed using Image J software. Stimulation with cGAMP directly activates STING, circumventing cGAS; this was used to determine if compounds had effects on downstream components of cGAS/STING signaling. The IFN-6 ELISA was used as the primary measure of cellular potency and selectivity (Table 3) and used the reporter gene assays for assessing off-target activity with other pattern recognition receptors.
The ICso values for IFNB ELISA stimulated with THP-1, PBMC, DNA, and cGAMP were determined for several exemplary compounds of the invention, and are provided in Table 3 where A represents <1 μM; B represents 1-2.5 μM; C represents 2.5-10 μM; D represents 10-20 μM; and E represents >20 μM.

[3] = high ATP and GTP (1 mM) to mimic physiological conditions, read-out: IC50 FP Physiological
[4] = standard conditions: 100 μM ATP and GTP, 62.5 nM bp ISD, 60 minute reactions, read-out: IC50 FP Standard

| SMILES | MDCK-MDR Permeability A→B [1] | IC50 (cGAS; [3]) | IC50 (cGAS; [4]) | IC50 [2] |
| --- | --- | --- | --- | --- |
| Cc1nc(N2C[C@@H](CC(=O)Nc3ccc4nc[nH]c4c3)C[C@H]2C(=O)O)c2oc3ccccc3c2n1 [Compound 29, (2S,4R)-4-(2-((1H-benzo[d]imidazol-6-yl)amino)-2-oxoethyl)-1-(2-methylbenzofuro[3,2-d]pyrimidin-4-yl)pyrrolidine-2-carboxylic acid] | C (C represents <1 cm/ss×10^−6) | 0.5 to 1 µM | 0.1 to 0.2 µM | > 20 µM |
| Cc1nc(N2C[C@@H](CC(=O)Nc3cccc4[nH]ncc34)C[C@H]2C(=O)O)c2oc3ccccc3c2n1 [Compound 28, (28.4R)-4-(2-((1H-indazol-4-yl)amino)-2-oxoethyl)-1-(2-methylbenzofuro[3,2-d]pyrimidin-4-yl)pyrrolidine-2-carboxylic acid] | C (C represents <1 cm/ss×10^−6) | 1 to 5 µM | 0.2 to 1 µM | > 20 µM |
| Cc1nc(N2C[C@@H](CC(=O)Nc3ccc(-c4cccnn4)cc3)C[C@H]2C(=O)O)c2oc3ccccc3c2n1 [Compound 44, (2S,4R)-1-(2-methylbenzofuro[3,2-d]pyrimidin-4-yl)-4-(2-oxo-2-((4-(pyridazin-3-yl)phenyl)amino)ethyl)pyrrolidine-2-carboxylic acid] | C (C represents <1 cm/ss×10^−6) | 0.2 to 0.5 µM | < 0.05 µM | > 20 µM |
| COc1cccc(NC(=O)C[C@H]2C[C@@H](C(=O)O)N(c3nc(C)nc4c3oc3ccccc34)C2)c1 [Compound 13, (2S,4R)-4-(2-((3-methoxyphenyl)amino)-2-oxoethyl)-1-(2-methylbenzofuro[3,2-d]pyrimidin-4-yl)pyrrolidine-2-carboxylic acid] | C (C represents <1 cm/ss×10^−6) | 1 to 5 µM | 0.2 to 1 µM | 10 to 20 µM |
| Cc1nc(N2C[C@@H](CC(=O)Nc3cccc(-c4cn[nH]c4)c3)C[C@H]2C(=O)O)c2oc3ccccc3c2n1 [Compound 11, (25,4R)-4-(2-((3-(1H-pyrazol-4-yl)phenyl)amino)-2-oxoethyl)-1-(2-methylbenzofuro[3,2-d]pyrimidin-4-yl)pyrrolidine-2-carboxylic acid] | C (C represents <1 cm/ss×10^−6) | 0.2 to 0.5 µM | 0.05 to 0.1 µM | > 20 µM |
| Cc1nc(N2C[C@@H](CC(=O)Nc3ccc(N4CCC(O)CC4)cc3)C[C@H]2C(=O)O)c2oc3ccccc3c2n1 [Compound 53, (2S,4R)-4-(2-((4-(4-hydroxypiperidin-1-yl)phenyl)amino)-2-oxoethyl)-1-(2-methylbenzofuro[3,2-d]pyrimidin-4-yl)pyrrolidine-2-carboxylic acid] | – | 1 to 5 µM | 0.2 to 1 µM | > 20 µM |
| Cc1nc(N2C[C@@H](CC(=O)Nc3cccc(N4CCC(O)CC4)c3)C[C@H]2C(=O)O)c2oc3ccccc3c2n1 [Compound 58, (2S,4R)-4-(2-((3-(4-hydroxypiperidin-1-yl)phenyl)amino)-2-oxoethyl)-1-(2-methylbenzofuro[3,2-d]pyrimidin-4-yl)pyrrolidine-2-carboxylic acid] | C (C represents <1 cm/ss×10^−6) | 1 to 5 µM | 0.2 to 1 µM | > 20 µM |
| Cc1nc(N2C[C@@H](CC(=O)Nc3cccc(-c4c[nH]cn4)c3)C[C@H]2C(=O)O)c2oc3ccccc3c2n1 [Compound 49, (28,4R)-4-(2-((3-(1H-imidazol-4-yl)phenyl)amino)-2-oxoethyl)-1-(2-methylbenzofuro[3,2-d]pyrimidin-4-yl)pyrrolidine-2-carboxylic acid] | – | 0.5 to 1 µM | 0.1 to 0.2 µM | > 20 µM |
| Cc1nc(N2C[C@@H](CC(=O)Nc3cnc(-c4ccccc4)nc3)C[C@H]2C(=O)O)c2oc3ccccc3c2n1 [Compound 65, (2S,4R)-1-(2-methylbenzofuro[3,2-d]pyrimidin-4-yl)-4-(2-oxo-2-((2-phenylpyrimidin-5-yl)amino)ethyl)pyrrolidine-2-carboxylic acid] | – | 0.5 to 1 µM | 0.05 to 0.1 µM | – |
| Cc1nc(N2C[C@@H](CC(=O)Nc3ccc(N4CCNCC4)cc3)C[C@H]2C(=O)O)c2oc3ccccc3c2n1 [Compound 8, (2S,4R)-1-(2-methylbenzofuro[3,2-d]pyrimidin-4-yl)-4-(2-oxo-2-((4-(piperazin-1-yl)phenyl)amino)ethyl)pyrrolidine-2-carboxylic acid] | C (C represents <1 cm/ss×10^−6) | > 5 µM | 1 to 10 µM | > 20 µM |
| Cc1nc(N2C[C@@H](CC(=O)Nc3ccc(N4CCOC4=O)cc3)C[C@H]2C(=O)O)c2oc3ccccc3c2n1 [Compound 52, (2S,4R)-1-(2-methylbenzofuro[3,2-d]pyrimidin-4-yl)-4-(2-oxo-2-((4-(2-oxooxazolidin-3-yl)phenyl)amino)ethyl)pyrrolidine-2-carboxylic acid] | – | 1 to 5 µM | 0.1 to 0.2 µM | – |
| Cc1nc(N2C[C@@H](CC(=O)Nc3ccc(-c4cccc(CO)c4)cc3)C[C@H]2C(=O)O)c2oc3ccccc3c2n1 [Compound 59, (2S,4R)-4-(2-((3′-(hydroxymethyl)-[1,1′-biphenyl]-4-yl)amino)-2-oxoethyl)-1-(2-methylbenzofuro[3,2-d]pyrimidin-4-yl)pyrrolidine-2-carboxylic acid] | – | 0.5 to 1 µM | < 0.05 µM | – |
| Cc1nc(N2C[C@@H](CC(=O)Nc3ccc(-c4ccnc(O)c4)cc3)C[C@H]2C(=O)O)c2oc3ccccc3c2n1 [Compound 48, (2S,4R)-4-(2-((4-(2-hydroxypyridin-4-yl)phenyl)amino)-2-oxoethyl)-1-(2-methylbenzofuro[3,2-d]pyrimidin-4-yl)pyrrolidine-2-carboxylic acid] | – | 0.5 to 1 µM | < 0.05 µM | – |
| Cc1nc(N2C[C@@H](CC(=O)Nc3ccc(-c4ccccc4)nn3)C[C@H]2C(=O)O)c2oc3ccccc3c2n1 [Compound 64, (2S,4R)-1-(2-methylbenzofuro[3,2-d]pyrimidin-4-yl)-4-(2-oxo-2-((6-phenylpyridazin-3-yl)amino)ethyl)pyrrolidine-2-carboxylic acid] | – | 1 to 5 µM | 0.2 to 1 µM | – |
| Cc1nc(N2C[C@@H](CC(=O)Nc3ccc(-c4ccc(O)nc4)cc3)C[C@H]2C(=O)O)c2oc3ccccc3c2n1 [Compound 47, (28.4R)-4-(2-((4-(6-hydroxypyridin-3-yl)phenyl)amino)-2-oxoethyl)-1-(2-methylbenzofuro[3,2-d]pyrimidin-4-yl)pyrrolidine-2-carboxylic acid] | – | 1 to 5 µM | 0.1 to 0.2 µM | – |
| Cc1nc(N2C[C@@H](CC(=O)Nc3ccc(-c4ccc(CO)cc4)cc3)C[C@H]2C(=O)O)c2oc3ccccc3c2n1 [Compound 60, (28.4R)-4-(2-((4′-(hydroxymethyl)-[1,1′-biphenyl]-4-yl)amino)-2-oxoethyl)-1-(2-methylbenzofuro[3,2-d]pyrimidin-4-yl)pyrrolidine-2-carboxylic acid] | – | 0.2 to 0.5 µM | < 0.05 µM | – |
